# Target: P. falciparum apicoplast DNA polymerase (Pf-apPOL) (Plasmodium falciparum, UniProt Q8ILY1)
# Test: Fluorescence-based high-throughput DNA polymerase assay (molecular beacon), primary screen and dose-response
# Type: biochemical
# How it was run: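 Single-point screening used 10 µM compound with 20 nM polymerase, 20 nM hairpin substrate and 6 µM dNTPs for 90 min at 25 °C. Confirmatory titrations (2.5–80 µM) followed fluorescence at three times, and IC50 was derived from a fit including a cooperativity term n.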
# [1] = 186 hits, value of the hit list (primary screen); unit not given; 90 min, 10 µM
# [2] = primary screen value, 'DNA Pol' only; 90 min, 10 µM
# [3] = supplemental file 2, sheet IC50 nontoxic compounds; Pf-apPOL
# Sequence of P. falciparum apicoplast DNA polymerase (Pf-apPOL) (Q8ILY1 entry or part of it): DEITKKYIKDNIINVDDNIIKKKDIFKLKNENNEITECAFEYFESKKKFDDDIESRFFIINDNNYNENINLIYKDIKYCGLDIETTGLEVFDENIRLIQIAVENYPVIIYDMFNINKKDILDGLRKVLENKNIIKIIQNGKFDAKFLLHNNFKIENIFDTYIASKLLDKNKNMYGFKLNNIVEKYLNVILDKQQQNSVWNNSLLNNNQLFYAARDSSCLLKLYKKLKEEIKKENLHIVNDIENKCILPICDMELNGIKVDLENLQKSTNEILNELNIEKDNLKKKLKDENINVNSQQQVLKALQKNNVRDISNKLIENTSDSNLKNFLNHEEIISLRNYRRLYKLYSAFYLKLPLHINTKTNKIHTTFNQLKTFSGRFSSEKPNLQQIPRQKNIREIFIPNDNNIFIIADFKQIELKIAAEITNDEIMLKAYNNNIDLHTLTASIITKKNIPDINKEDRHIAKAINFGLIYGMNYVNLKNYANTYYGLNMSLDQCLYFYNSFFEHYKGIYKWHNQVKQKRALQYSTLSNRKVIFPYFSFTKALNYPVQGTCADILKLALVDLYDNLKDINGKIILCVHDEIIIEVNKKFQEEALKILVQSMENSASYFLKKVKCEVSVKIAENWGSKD
smiles,measurement,setting,value
"CC(C)CCNC(=O)c1cnn2c(O)cc(CSc3ccc(Cl)cc3)nc12 [Molecule 101, CC(CCNC(=O)c1cnn2c1nc(CSc1ccc(cc1)Cl)cc2O)C]",DNA Pol,"'DNA Pol' of the 186 hits list (screen value); 90 min, 10 µM",47
same,% inhibition Apo pol 10',DRC-1; 10'; conc 2.5,0.1018%
same,% inhibition Apo pol 10',DRC-1; 10'; conc 5,10.5875%
same,% inhibition Apo pol 10',DRC-1; 10'; conc 10,55.0331%
same,% inhibition Apo pol 10',DRC-1; 10'; conc 20,79.7694%
same,% inhibition Apo pol 10',DRC-1; 10'; conc 40,93.5546%
same,% inhibition Apo pol 10',DRC-1; 10'; conc 80,97.7054%
same,% inhibition Apol 90',DRC-1; 90'; conc 2.5,-5.869%
same,% inhibition Apol 90',DRC-1; 90'; conc 5,6.076%
same,% inhibition Apol 90',DRC-1; 90'; conc 10,52.4114%
same,% inhibition Apol 90',DRC-1; 90'; conc 20,78.3109%
same,% inhibition Apol 90',DRC-1; 90'; conc 40,89.1904%
same,% inhibition Apol 90',DRC-1; 90'; conc 80,96.2635%
same,% inhibition apPOL 180',DRC-1; 180'; conc 2.5,-11.3834%
same,% inhibition apPOL 180',DRC-1; 180'; conc 5,-2.604%
same,% inhibition apPOL 180',DRC-1; 180'; conc 10,39.1813%
same,% inhibition apPOL 180',DRC-1; 180'; conc 20,71.0945%
same,% inhibition apPOL 180',DRC-1; 180'; conc 40,85.4085%
same,% inhibition apPOL 180',DRC-1; 180'; conc 80,94.6304%
same,% inhibition Apo pol 5',DRC-2; 5'; conc 2.5,-1.9%
same,% inhibition Apo pol 5',DRC-2; 5'; conc 5,20%
same,% inhibition Apo pol 5',DRC-2; 5'; conc 10,55%
same,% inhibition Apo pol 5',DRC-2; 5'; conc 20,59%
same,% inhibition Apo pol 5',DRC-2; 5'; conc 40,66%
same,% inhibition Apo pol 5',DRC-2; 5'; conc 80,69%
same,% inhibition Apo pol 5',DRC-2; 5'; concentration 40,66%
same,% inhibition Apo pol 5',DRC-2; 5'; concentration 80,69%
same,% inhibition Apol 40',DRC-2; 40'; conc 2.5,-1.08%
same,% inhibition Apol 40',DRC-2; 40'; conc 5,24%
same,% inhibition Apol 40',DRC-2; 40'; conc 10,65%
same,% inhibition Apol 40',DRC-2; 40'; conc 20,69%
same,% inhibition Apol 40',DRC-2; 40'; conc 40,76%
same,% inhibition Apol 40',DRC-2; 40'; conc 80,81%
same,% inhibition Apol 40',DRC-2; 40'; concentration 20,69%
same,% inhibition ApPOL 90',DRC-2; 90'; conc 2.5,-2.68%
same,% inhibition ApPOL 90',DRC-2; 90'; conc 5,22%
same,% inhibition ApPOL 90',DRC-2; 90'; conc 10,66%
same,% inhibition ApPOL 90',DRC-2; 90'; conc 20,70%
same,% inhibition ApPOL 90',DRC-2; 90'; conc 40,77%
same,% inhibition ApPOL 90',DRC-2; 90'; conc 80,83%
same,% inhibition ApPOL 90',DRC-2; 90'; concentration 10,66%
same,% inhibition apPOL 180',DRC-2; 180'; conc 2.5,-4.21%
same,% inhibition apPOL 180',DRC-2; 180'; conc 5,16%
same,% inhibition apPOL 180',DRC-2; 180'; conc 10,60%
same,% inhibition apPOL 180',DRC-2; 180'; conc 20,66%
same,% inhibition apPOL 180',DRC-2; 180'; conc 40,75%
same,% inhibition apPOL 180',DRC-2; 180'; conc 80,85%
same,% inhibition apPOL 180',DRC-2; 180'; concentration 20,66%
same,DNA Pol,"primary screen value, ""DNA Pol""; 90 min, 10 µM",47
"O=C(O)C(=O)Nc1nc(-c2ccc3c(c2)OCCO3)cs1 [Molecule 82, OC(=O)C(=O)Nc1scc(n1)c1ccc2c(c1)OCCO2]",DNA Pol,[1],43
same,% inhibition Apo pol 10',DRC-1; 10'; concentration 2.5,23.4738%
same,% inhibition Apo pol 10',DRC-1; 10'; concentration 5,27.4589%
same,% inhibition Apo pol 10',DRC-1; 10'; concentration 10,36.2592%
same,% inhibition Apo pol 10',DRC-1; 10'; concentration 20,39.5068%
same,% inhibition Apo pol 10',DRC-1; 10'; concentration 40,47.7699%
same,% inhibition Apo pol 10',DRC-1; 10'; concentration 80,63.5129%
same,% inhibition Apol 90',DRC-1; 90'; concentration 2.5,8.772%
same,% inhibition Apol 90',DRC-1; 90'; concentration 5,11.5991%
same,% inhibition Apol 90',DRC-1; 90'; concentration 10,21.2379%
same,% inhibition Apol 90',DRC-1; 90'; concentration 20,24.9603%
same,% inhibition Apol 90',DRC-1; 90'; concentration 40,33.8146%
same,% inhibition Apol 90',DRC-1; 90'; concentration 80,46.367%
same,% inhibition apPOL 180',DRC-1; 180'; concentration 2.5,0.4032%
same,% inhibition apPOL 180',DRC-1; 180'; concentration 5,2.14%
same,% inhibition apPOL 180',DRC-1; 180'; concentration 10,10.4775%
same,% inhibition apPOL 180',DRC-1; 180'; concentration 20,13.4628%
same,% inhibition apPOL 180',DRC-1; 180'; concentration 40,21.1866%
same,% inhibition apPOL 180',DRC-1; 180'; concentration 80,32.4786%
same,% inhibition Apo pol 5',"DRC-2, 5', concentration 2.5",23%
same,% inhibition Apo pol 5',"DRC-2, 5', concentration 5",17%
same,% inhibition Apo pol 5',"DRC-2, 5', concentration 10",25%
same,% inhibition Apo pol 5',"DRC-2, 5', concentration 20",30%
same,% inhibition Apo pol 5',"DRC-2, 5', concentration 40",34%
same,% inhibition Apo pol 5',"DRC-2, 5', concentration 80",46%
same,% inhibition Apol 40',"DRC-2, 40', concentration 2.5",13%
same,% inhibition Apol 40',"DRC-2, 40', concentration 5",15%
same,% inhibition Apol 40',"DRC-2, 40', concentration 10",24%
same,% inhibition Apol 40',"DRC-2, 40', concentration 20",28%
same,% inhibition Apol 40',"DRC-2, 40', concentration 40",37%
same,% inhibition Apol 40',"DRC-2, 40', concentration 80",46%
same,% inhibition ApPOL 90',"DRC-2, 90', concentration 2.5",8%
same,% inhibition ApPOL 90',"DRC-2, 90', concentration 5",14%
same,% inhibition ApPOL 90',"DRC-2, 90', concentration 10",23%
same,% inhibition ApPOL 90',"DRC-2, 90', concentration 20",26%
same,% inhibition ApPOL 90',"DRC-2, 90', concentration 40",34%
same,% inhibition ApPOL 90',"DRC-2, 90', concentration 80",43%
same,% inhibition apPOL 180',"DRC-2, 180', concentration 2.5",0.181%
same,% inhibition apPOL 180',"DRC-2, 180', concentration 5",9%
same,% inhibition apPOL 180',"DRC-2, 180', concentration 10",15%
same,% inhibition apPOL 180',"DRC-2, 180', concentration 20",18%
same,% inhibition apPOL 180',"DRC-2, 180', concentration 40",25%
same,% inhibition apPOL 180',"DRC-2, 180', concentration 80",34%
same,% inhibition Apo pol 5',DRC-2; 5'; concentration 2.5,23%
same,% inhibition Apo pol 5',DRC-2; 5'; concentration 10,25%
same,% inhibition Apo pol 5',DRC-2; 5'; concentration 40,34%
same,% inhibition Apo pol 5',DRC-2; 5'; concentration 80,46%
same,% inhibition Apol 40',DRC-2; 40'; concentration 5,15%
same,% inhibition Apol 40',DRC-2; 40'; concentration 80,46%
same,% inhibition ApPOL 90',DRC-2; 90'; concentration 10,23%
same,% inhibition ApPOL 90',DRC-2; 90'; concentration 40,34%
same,% inhibition apPOL 180',DRC-2; 180'; concentration 10,15%
same,% inhibition apPOL 180',DRC-2; 180'; concentration 40,25%
same,% inhibition apPOL 180',DRC-2; 180'; concentration 80,34%
same,DNA Pol,[2],43
CC(NC(=O)Cc1cc(=O)[nH]c(SCc2cccc(Cl)c2)n1)c1ccccc1 (stereo not shown) [Molecule 67],IC50,[3],23.3 µM
Cc1ccc(-n2nnc(C(=O)O)c2-c2ccccn2)c(F)c1 [Molecule 54],IC50,[3],14.5 µM
Cc1ccccc1NC(=O)Cn1ccc2c(=O)[nH]ccc21 [Molecule 85],IC50,[3],9.12 µM
O=C(O)c1c(F)c(F)c(-c2c(F)c(F)c(C(=O)O)c(F)c2F)c(F)c1F [KU0008974],DNA Pol,[1],36
same,% inhibition Apo pol 10',DRC-1; 10'; concentration 2.5,9.435%
same,% inhibition Apo pol 10',DRC-1; 10'; concentration 5,13.4595%
same,% inhibition Apo pol 10',DRC-1; 10'; concentration 10,21.422%
same,% inhibition Apo pol 10',DRC-1; 10'; concentration 20,42.0339%
same,% inhibition Apo pol 10',DRC-1; 10'; concentration 40,61.4201%
same,% inhibition Apo pol 10',DRC-1; 10'; concentration 80,59.9111%
same,% inhibition Apol 90',DRC-1; 90'; concentration 2.5,3.377%
same,% inhibition Apol 90',DRC-1; 90'; concentration 5,7.4359%
same,% inhibition Apol 90',DRC-1; 90'; concentration 10,14.2426%
same,% inhibition Apol 90',DRC-1; 90'; concentration 20,33.67%
same,% inhibition Apol 90',DRC-1; 90'; concentration 40,52.8962%
same,% inhibition Apol 90',DRC-1; 90'; concentration 80,50.0149%
same,% inhibition apPOL 180',DRC-1; 180'; concentration 2.5,-2.039%
same,% inhibition apPOL 180',DRC-1; 180'; concentration 5,0.5684%
same,% inhibition apPOL 180',DRC-1; 180'; concentration 10,7.634%
same,% inhibition apPOL 180',DRC-1; 180'; concentration 20,22.5458%
same,% inhibition apPOL 180',DRC-1; 180'; concentration 40,40.2712%
same,% inhibition apPOL 180',DRC-1; 180'; concentration 80,38.6937%
same,% inhibition Apo pol 5',"DRC-2, 5', concentration 2.5",4%
same,% inhibition Apo pol 5',"DRC-2, 5', concentration 5",5%
same,% inhibition Apo pol 5',"DRC-2, 5', concentration 10",17%
same,% inhibition Apo pol 5',"DRC-2, 5', concentration 20",29%
same,% inhibition Apo pol 5',"DRC-2, 5', concentration 40",17%
same,% inhibition Apo pol 5',"DRC-2, 5', concentration 80",35%
same,% inhibition Apol 40',"DRC-2, 40', concentration 2.5",5%
same,% inhibition Apol 40',"DRC-2, 40', concentration 5",9%
same,% inhibition Apol 40',"DRC-2, 40', concentration 10",23%
same,% inhibition Apol 40',"DRC-2, 40', concentration 20",41%
same,% inhibition Apol 40',"DRC-2, 40', concentration 40",20%
same,% inhibition Apol 40',"DRC-2, 40', concentration 80",47%
same,% inhibition ApPOL 90',"DRC-2, 90', concentration 2.5",2.67%
same,% inhibition ApPOL 90',"DRC-2, 90', concentration 5",7.58%
same,% inhibition ApPOL 90',"DRC-2, 90', concentration 10",21%
same,% inhibition ApPOL 90',"DRC-2, 90', concentration 20",39%
same,% inhibition ApPOL 90',"DRC-2, 90', concentration 40",19%
same,% inhibition ApPOL 90',"DRC-2, 90', concentration 80",47%
same,% inhibition apPOL 180',"DRC-2, 180', concentration 2.5",-4%
same,% inhibition apPOL 180',"DRC-2, 180', concentration 5",-1%
same,% inhibition apPOL 180',"DRC-2, 180', concentration 10",12%
same,% inhibition apPOL 180',"DRC-2, 180', concentration 20",30%
same,% inhibition apPOL 180',"DRC-2, 180', concentration 40",14%
same,% inhibition apPOL 180',"DRC-2, 180', concentration 80",40%
same,% inhibition Apo pol 5',DRC-2; 5'; concentration 5,5%
same,% inhibition Apo pol 5',DRC-2; 5'; concentration 10,17%
same,% inhibition Apo pol 5',DRC-2; 5'; concentration 40,17%
same,% inhibition Apol 40',DRC-2; 40'; concentration 2.5,5%
same,% inhibition Apol 40',DRC-2; 40'; concentration 80,47%
same,% inhibition ApPOL 90',DRC-2; 90'; concentration 80,47%
same,DNA Pol,[2],36
